Source: PubChem BioAssay (NCI)
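Dose response: 5 concentrations. Exposure: 48 h. Format: 96-well plates. Endpoint: linear interpolation; highest concentration if not reached. At the TGI there is no net growth.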

Tests used:
Test in all cases: NCI anticancer screen, dose series, 48 h
786-0 renal = test system: 786-0 renal
A498 renal = test system: A498 renal
CCRF-CEM leukemia = test system: CCRF-CEM leukemia
DU-145 prostate = test system: DU-145 prostate
HCC-2998 colon = test system: HCC-2998 colon
HOP-92 NSCLC = test system: HOP-92 NSCLC
IGROV1 ovarian = test system: IGROV1 ovarian
KM12 colon = test system: KM12 colon
M14 melanoma = test system: M14 melanoma
MCF7 breast = test system: MCF7 breast
MDA-MB-435 = test system: MDA-MB-435
NCI-H522 lung = test system: NCI-H522 lung
PC-3 prostate = test system: PC-3 prostate
RPMI-8226 leukemia = test system: RPMI-8226 leukemia
SK-MEL-28 melanoma = test system: SK-MEL-28 melanoma
SR leukemia = test system: SR leukemia
T-47D breast = test system: T-47D breast

SMILES	TGI (786-0 renal)	TGI (A498 renal)	TGI (CCRF-CEM leukemia)	TGI (DU-145 prostate)	TGI (HCC-2998 colon)	TGI (HOP-92 NSCLC)	TGI (IGROV1 ovarian)	TGI (KM12 colon)	TGI (M14 melanoma)	TGI (MCF7 breast)	TGI (MDA-MB-435)	TGI (NCI-H522 lung)	TGI (PC-3 prostate)	TGI (RPMI-8226 leukemia)	TGI (SK-MEL-28 melanoma)	TGI (SR leukemia)	TGI (T-47D breast)
O=C(N/C(=C\c1ccccc1)c1nc2ccccc2c(=O)o1)c1ccccc1	> 100 µM	> 100 µM	> 100 µM	> 100 µM	> 100 µM	> 100 µM	> 100 µM	> 100 µM	> 100 µM	> 100 µM	> 100 µM	> 100 µM	> 100 µM	> 100 µM	> 100 µM	> 100 µM	> 100 µM
Cn1cc(NC(=O)Nc2cc(C(=O)Nc3cc(C(=O)Nc4ccc5cc(S(=O)(=O)O)cc(S(=O)(=O)O)c5c4)n(C)c3)n(C)c2)cc1C(=O)Nc1cc(C(=O)Nc2ccc3cc(S(=O)(=O)O)cc(S(=O)(=O)O)c3c2)n(C)c1	> 100 µM		> 100 µM	> 100 µM	> 100 µM	> 100 µM	> 100 µM	> 100 µM	> 100 µM	> 100 µM	> 100 µM	> 100 µM	> 100 µM	> 100 µM	> 100 µM	> 100 µM	> 100 µM
O=S(=O)(CC(Cl)c1ccccc1)c1nc2ccccc2s1 (stereo unspecified)	19.4 µM	35.1 µM	4.28 µM	30.2 µM	31.8 µM	9.38 µM	24.2 µM	32 µM	7.2 µM	23.3 µM	20.5 µM	4.89 µM	29.9 µM	9.65 µM	29.7 µM	4.55 µM	41.7 µM
COCN1C(=O)[C@@H]2C[C@@H](O)CN2C(=O)c2ccccc21	> 100 µM	> 100 µM	> 100 µM	> 100 µM	> 100 µM	> 100 µM	> 100 µM	> 100 µM	> 100 µM	> 100 µM	> 100 µM	> 100 µM	> 100 µM	> 100 µM	> 100 µM	> 100 µM	> 100 µM
COC(=O)C1(Cc2ccccc2)Cc2ccccc2C1O (stereo unspecified)	> 100 µM	> 100 µM	> 100 µM	> 100 µM	> 100 µM		> 100 µM	> 100 µM		> 100 µM	> 100 µM	> 100 µM	> 100 µM	> 100 µM	> 100 µM	> 100 µM	> 100 µM
O=C1c2cc3c(cc2CC12Cc1ccccc1C2)CCC3	64.8 µM	> 100 µM	98.3 µM	> 100 µM	> 100 µM	64.3 µM	> 100 µM	56.9 µM	70.6 µM	54.6 µM	73.1 µM	93.3 µM	> 100 µM	68.2 µM	> 100 µM	74.7 µM	> 100 µM
O=C1c2ccccc2CC12Cc1cc3c(cc1C2)CCC3	> 100 µM	> 100 µM	> 100 µM	> 100 µM	> 100 µM	> 100 µM	> 100 µM	93.9 µM	94.1 µM	> 100 µM	> 100 µM	> 100 µM	> 100 µM	> 100 µM	> 100 µM	57.5 µM	> 100 µM
CCCC(=O)OCC1OC(n2cc(F)c(=O)[nH]c2=O)C(F)C1O (stereo unspecified)	> 100 µM		> 100 µM	> 67.1 µM	> 100 µM	> 100 µM	> 100 µM	> 100 µM	> 100 µM	> 100 µM	> 100 µM	> 100 µM	> 100 µM	> 100 µM	> 100 µM	> 100 µM	> 100 µM
FC(F)(F)c1ccc2c(-c3cc[nH]c3)ccnc2c1	32.1 µM	51.8 µM	> 100 µM	> 100 µM	> 100 µM	> 100 µM	> 100 µM	> 100 µM	> 100 µM	> 100 µM	> 100 µM	94.9 µM	> 100 µM	95.2 µM	> 100 µM	84.9 µM	> 100 µM
Cc1c(-c2ccccc2)c(C#N)c2nnn(-c3ccc(Cl)cc3)c(=O)n12	47.7 µM	> 100 µM	> 100 µM	> 100 µM	> 100 µM	> 100 µM	> 100 µM	> 100 µM	> 100 µM	> 100 µM	> 100 µM	26.7 µM	50.9 µM	> 100 µM	> 100 µM	> 100 µM	47.4 µM
O=C(CCN1CCCCC1)Nc1ccc2c(c1)C(=O)c1ccc(NC(=O)CCN3CCCCC3)cc1C2=O	3.8 µM	26.7 µM	11.1 µM	26.9 µM	13.5 µM	29.2 µM	13.2 µM	3.26 µM	10.1 µM	5.91 µM	3.25 µM	32.7 µM	5.1 µM	14.6 µM	32.8 µM	6.49 µM	32.1 µM
Cc1cc(C)c(/C=C2\C(=O)Nc3ccccc32)[nH]1	> 100 µM	> 100 µM	> 100 µM	> 100 µM	> 100 µM	> 100 µM			> 100 µM	> 100 µM	> 100 µM	> 100 µM	> 100 µM	> 100 µM	> 100 µM	> 100 µM	> 100 µM
Cc1cccc(N=Nc2c(C)nn(C(=O)CC(=O)Nc3ccc(Cl)cc3)c2C)c1	> 100 µM	> 100 µM	98.6 µM	> 100 µM	> 100 µM	79.6 µM		> 100 µM	> 100 µM	> 100 µM	> 100 µM	> 100 µM	> 100 µM	> 100 µM	> 100 µM	41.8 µM	> 100 µM
Cc1nc2ccc(Cl)cc2c2c1CCN2c1ccc(F)cc1	> 100 µM	68.4 µM	> 100 µM	> 100 µM	> 100 µM		72.7 µM	> 100 µM	51.7 µM	59.1 µM	63.6 µM	> 100 µM	> 100 µM	65.1 µM	75.7 µM	73.8 µM	> 100 µM
CC(=O)Nc1ccc(S(=O)(=O)c2nnc(NC(C)=O)s2)cc1	> 100 µM	> 100 µM	> 100 µM	> 100 µM	> 100 µM	> 100 µM	> 100 µM	> 100 µM	> 100 µM	> 100 µM	> 100 µM	> 100 µM	> 100 µM	> 100 µM	> 100 µM	> 100 µM	> 100 µM
Cc1cc(C)c2c(=O)n(CC(O)CN(Cc3ccccc3)CC(O)Cn3sc4nc(C)cc(C)c4c3=O)sc2n1 (stereo unspecified)	27.7 µM		> 100 µM	31.7 µM	35.7 µM	31.7 µM	31.7 µM	31.4 µM	32.9 µM	32.1 µM	31.4 µM	22 µM	30.4 µM	> 100 µM	74.1 µM	> 100 µM	41 µM
COC(=O)CN(CC(=O)NCCNC(=O)OC(C)(C)C)C1CCCCC1N(CC(=O)OC)CC(=O)OC (stereo unspecified)	> 100 µM	> 100 µM	> 100 µM	> 100 µM	> 100 µM		> 100 µM	> 100 µM		> 100 µM	> 100 µM	> 100 µM	> 100 µM	> 100 µM	> 100 µM	> 100 µM	> 100 µM
S=C(NCCc1ccccn1)N/N=C(\c1ccccc1)c1ccccn1	> 56.8 µM	0.951 µM	> 100 µM	> 48.6 µM	> 63 µM	> 55.7 µM		> 91.5 µM	> 100 µM	> 100 µM	> 100 µM	> 100 µM	> 100 µM	> 58 µM	> 100 µM	> 57.7 µM	> 75.7 µM
Cc1cc(C)n(-c2nc(-n3nc(C)cc3C)nc(-n3nc(C)cc3C)n2)n1	> 100 µM	> 100 µM	> 100 µM	> 100 µM	> 100 µM	> 100 µM	> 100 µM	> 100 µM	> 100 µM	> 100 µM	> 100 µM	> 100 µM	> 100 µM	> 100 µM	> 100 µM	> 100 µM	> 100 µM
CCOC(=O)C1=C(C(=O)OCC)SC2(S1)C(C(=O)OCC)=C(C(=O)OCC)Sc1c2ssc1=O	2.13 µM	12.8 µM	2.06 µM	2.2 µM	5.89 µM	2.81 µM	2.57 µM	10.3 µM	4.94 µM	3.5 µM	3.93 µM	4.46 µM	2.96 µM	4.56 µM	3.93 µM	> 100 µM	4.62 µM
N#CC(O)CCOCc1ccccc1 (stereo unspecified)	> 100 µM	> 100 µM	> 100 µM	> 100 µM		> 100 µM	> 100 µM	> 100 µM	> 100 µM	> 100 µM	> 100 µM	51.4 µM	> 100 µM	> 100 µM	> 100 µM	> 100 µM	> 100 µM
O=C1N[C@H]2C(=O)c3c(Br)sc(Br)c3[C@H]2O1	24.1 µM	33.2 µM	3.63 µM	28.9 µM	24.2 µM	28.9 µM	25.3 µM	> 55.5 µM	10.4 µM	25.4 µM	26.7 µM	3.22 µM	16.4 µM	> 45 µM	10.7 µM	6.27 µM	55 µM
